# Assay results: PMC7211198, “Phase 1b study of a small molecule antagonist of human chemokine (C-C motif) receptor 2 (PF-04136309) in combination with nab-paclitaxel/gemcitabine in first-line treatment of metastatic pancreatic ductal adenocarcinoma” (Investigational New Drugs, 2019)
# Tests used:
# CCL2-induced pERK = assay: Ex vivo CCL2-induced pERK in whole blood by flow cytometry (target engagement); design: species or system human; details: most patients, 500 mg (n = 17) and 750 mg (n = 4) BID, over the course of study
# Source text: The primary objectives were to evaluate the safety and tolerability of PF-04136309 in combination with nab-paclitaxel/gemcitabine, to characterize the dose-limiting toxicities (DLTs), and determine the RP2D of PF-04136309. Secondary objectives included assessment of PF-04136309 PK analysis and ex vivo inhibition of CCL2-induced extracellular signal-regulated kinase phosphorylation (pERK) as a measure of target engagement. Exploratory objectives included evaluation of CCL2 levels in peripheral blood and the prevalence of IM, TAM, and other relevant immune cells in the peripheral blood, bone marrow, and core needle biopsy of metastases or fine-needle aspirate primary tumor tissue.
# (§1) The levels of CD14 + CCR2+ IM or other immune-cell phenotypes in the samples from the core needle biopsy, fine-needle aspirate from primary tumor tissue, bone marrow, and peripheral blood were assessed by flow cytometry. CCL2 levels were determined using whole blood plasma by immunoassay using a luminex-based method. The ex vivo inhibition of CCL2-induced pERK by PF-04136309 was measured in whole blood using flow cytometry. Percentages of CD4+, CD8+, and CD4 + FoxP3+ T cells within CD45+ populations were evaluated by flow cytometry in paired fresh biopsy samples from three patients. Two patients provided both baseline and on-study biopsies, and one patient provided a baseline biopsy only.
# [1] = tested on: metastatic pancreatic ductal adenocarcinoma; assay: Antitumor response per RECIST version 1.1, mITT population; format: in vivo, human; details: 500 mg group; 2 of 17 with progression events, rest censored; not an appropriate estimate
# [2] = design: method as in PMID 27055731; details: cited from earlier work
# [3] = tested on: CD14 + CCR2+ inflammatory monocytes; assay: CD14+CCR2+ inflammatory monocytes in peripheral blood and bone marrow by flow cytometry; format: in vivo, human
# Experimental: as §1
# [4] = tested on: metastatic pancreatic ductal adenocarcinoma; assay: Antitumor response per RECIST version 1.1, mITT population; format: in vivo, human; details: for Best overall response: Complete response / Best overall response: Early death / Best overall response: Indeterminate / Best overall response: Objective progression / Best overall response: Partial response / Best overall response: Stable/no response / Best overall response: Unconfirmed complete response / Best overall response: Unconfirmed partial response / Objective response rate (95% exact CI): mITT; for ORR: 95% exact CI
# Experimental: The modified intent-to-treat (mITT) population was defined as all patients who had received at least one dose of study medication and had measurable disease at baseline assessment (within 28 days prior to study entry). The mITT population was assessed for antitumor response.
# Objective response rate (ORR) was defined as the proportion of patients with confirmed complete response (CR) or confirmed PR according to Response Evaluation Criteria In Solid Tumors, version 1.1, relative to all enrolled patients who had baseline measurable disease. Confirmed responses were those that persisted on repeat imaging ≥4 weeks after initial documentation of response. Indeterminate responses were those with no documented progression and absence of proper assessment of target lesions.
# Patients without on-study radiographic tumor re-evaluation and those who died, progressed, or dropped out for any reason prior to reaching a CR or PR were counted as nonresponders in the assessment of ORR. The ORR, CR, and PR point estimates for each treatment arm were provided along with the corresponding two-sided 95% confidence intervals (CIs) using an exact method.
# Imaging for tumor assessments included computed tomography (CT) or MRI scans of the chest, abdomen, and pelvis; brain CT or MRI scan for patients with known or suspected brain metastases; and bone scan and/or bone X-rays for patients with known or suspected bone metastases.
# [5] = tested on: T cells and CCR2+ TAM in tumor biopsy; assay: Immune cells in tumor biopsy samples by flow cytometry; format: in vivo, human
# Experimental: as §1
structure (smiles),measurement,setting,value
O=C(NCC(=O)N1CC[C@H](N[C@H]2CC[C@@](O)(c3ccc(-c4ncccn4)cn3)CC2)C1)c1cccc(C(F)(F)F)c1 [PF-04136309],Change in CCL2-induced pERK,CCL2-induced pERK,drop
same,Median progression-free survival (mPFS),[1],5.3 months
same,Proportion of patients achieving partial response vs that anticipated with FOLFIRINOX alone,"[2]; phase Ib, in combination with FOLFIRINOX",significantly increased
same,Pulmonary events reported,"[2]; single agent, non-oncology studies (N = 178) and 39 advanced PDAC patients with FOLFIRINOX",no pulmonary events
same,Safety and tolerability,"[2]; single oral dose up to 1000 mg, repeated oral up to 500 mg BID as single agent or with FOLFIRINOX",generally safe and well tolerated
same,Tolerability,"[2]; with FOLFIRINOX, borderline resectable and locally advanced pancreatic cancer",well-tolerated
same,Accumulation of CCR2 + CD14+ monocytes in the bone marrow,"[3]; 500 mg BID, week 6 post dosing vs baseline",not observed
same,Change in absolute counts of CD14 + CCR2+ IM in peripheral blood,"[3]; nearly all patients, baseline to study day 2, sustained through day 15",drop
same,Best overall response: Complete response,"[4]; 500 mg BID + nab-P/Gem, N = 17",0 n (%)
same,Best overall response: Early death,"[4]; 500 mg BID + nab-P/Gem, N = 17",1 (5.9) n (%)
same,Best overall response: Indeterminate,"[4]; 500 mg BID + nab-P/Gem, N = 17",5 (29.4) n (%)
same,Best overall response: Objective progression,"[4]; 500 mg BID + nab-P/Gem, N = 17",3 (17.6) n (%)
same,Best overall response: Partial response,"[4]; 500 mg BID + nab-P/Gem, N = 17",5 (29.4) n (%)
same,Best overall response: Stable/no response,"[4]; 500 mg BID + nab-P/Gem, N = 17",2 (11.8) n (%)
same,Best overall response: Unconfirmed complete response,"[4]; 500 mg BID + nab-P/Gem, N = 17",0 n (%)
same,Best overall response: Unconfirmed partial response,"[4]; 500 mg BID + nab-P/Gem, N = 17",1 (5.9) n (%)
same,Objective response rate (95% exact CI),"[4]; 500 mg BID + nab-P/Gem, N = 17",5 (29.4) (10.3–56.0) n (%)
same,ORR,"[4]; 500 mg BID group (n = 17), 10.3–56.0%",29.4%
same,Best overall response: Complete response,"[4]; 750 mg BID + nab-P/Gem, N = 4",0 n (%)
same,Best overall response: Early death,"[4]; 750 mg BID + nab-P/Gem, N = 4",0 n (%)
same,Best overall response: Indeterminate,"[4]; 750 mg BID + nab-P/Gem, N = 4",2 (50.0) n (%)
same,Best overall response: Objective progression,"[4]; 750 mg BID + nab-P/Gem, N = 4",0 n (%)
same,Best overall response: Partial response,"[4]; 750 mg BID + nab-P/Gem, N = 4",0 n (%)
same,Best overall response: Stable/no response,"[4]; 750 mg BID + nab-P/Gem, N = 4",1 (25.0) n (%)
same,Best overall response: Unconfirmed complete response,"[4]; 750 mg BID + nab-P/Gem, N = 4",0 n (%)
same,Best overall response: Unconfirmed partial response,"[4]; 750 mg BID + nab-P/Gem, N = 4",1 (25.0) n (%)
same,Objective response rate (95% exact CI),"[4]; 750 mg BID + nab-P/Gem, N = 4",0 (0.0–60.2) n (%)
same,ORR,"[4]; all 21 patients, 8.2–47.2%",23.8%
same,Change in PD-1 + CD4+ and PD-1 + CD8+ cells in the tumor biopsy sample,"[5]; one patient, data not shown",increase
same,"CCR2+ TAM levels, change","[5]; two patients, 500-mg BID group, individual values, data not shown",~4% to 3%
same,Change in CD4+ and CD8+ cells within CD45+ populations in fresh biopsy tumor samples,"[5]; two patients, 500-mg BID group, baseline vs week 6",increase
